In patent publication US11845714B2, “Process for producing taurine” (Vitaworks IP, LLC, priority 2014, dated 2023):

Conditions: 25% aqueous ammonia at room temperature

- solubility in 25% aqueous ammonia: 36 g in 100 g
SMILES: NCCS(=O)(=O)O [Taurine, 2-aminoethanesulfonic acid]
